Reference: patent US20100099561A1, “HETEROBICYCLIC ALKYLTHIO-BRIDGED ISOXAZOLINES” (E.I. DU PONT DE NEMOURS AND COMPANY, priority 2008, published 2010)

Columns and labels:
Type in all cases: in vivo
corn (Zea mays) = assay: Test A postemergence, corn; settings: 0 to 100 scale (0 no effect, 100 complete control)
Outline: (§1)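 Pre: directed soil spray after sowing in loam/sand. Post: seedlings at 1–2 leaf stage, 2–10 cm. Vehicle: non-phytotoxic solvent mix + surfactant. Greenhouse ~10 d; visual injury 0–100 vs untreated controls.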

[1] = test system: lambsquarters (Chenopodium album); assay: Test B preemergence, lambsquarters; settings: scale 0 to 100
Source text: (§2) Seeds of plant species selected from blackgrass (Alopecurus myosuroides), downy bromegrass (Bromus tectorum), green foxtail (Setaria viridis), Italian ryegrass (Lolium multiflorum), wheat (Triticum aestivum), wild oat (Avena fatua), catchweed bedstraw (Galium aparine), bermudagrass (Cynodon dactylon), Surinam grass (Brachiaria decumbens), cocklebur (Xanthium strumarium), corn (Zea mays), large crabgrass (Digitaria sanguinalis), woolly cupgrass (Eriochloa villosa), giant foxtail (Setaria faberii), goosegrass (Eleusine indica), johnsongrass (Sorghum halepense), kochia (Kochia scoparia), lambsquarters (Chenopodium album), morningglory (Ipomoea coccinea), nightshade (eastern black nightshade, Solanum ptycanthum), yellow nutsedge (Cyperus esculentus), pigweed (Amaranthus retroflexus), ragweed (common ragweed, Ambrosia elatior), soybean (Glycine max), sunflower (common oilseed sunflower, Helianthus annuus), Russian thistle (Salsola kali), and velvetleaf (Abutilon theophrasti) were planted into a blend of loam soil and sand and treated preemergence with test compounds formulated in a non-phytotoxic solvent mixture which included a surfactant. Treated plants and controls were maintained in a greenhouse for 13 to 15 days, after which time all species were compared to controls and visually evaluated. Plant response ratings, summarized in Table B, are based on a scale of 0 to 100 where 0 is no effect and 100 is complete control. A dash (-) response means no test result.

[2] = test system: sunflower (common oilseed sunflower, Helianthus annuus); assay: Test B preemergence, sunflower; settings: Preemergence, scale 0 to 100
Outline: (§3)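 Test compounds, formulated in a non-phytotoxic solvent mixture with surfactant, were applied before emergence to seeds planted in a blend of loam soil and sand. Plants were held in a greenhouse for 13 to 15 days and scored visually relative to controls, where 100 denotes complete control.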

[3] = test system: morningglory (Ipomoea spp.); assay: Test A postemergence, morningglory; settings: 0 to 100 scale (0 no effect, 100 complete control)
Outline: as §1

[4] = test system: downy bromegrass (Bromus tectorum); assay: Test B preemergence, downy bromegrass; settings: scale 0 to 100
Source text: as §2

[5] = test system: Surinam grass (Brachiaria decumbens); assay: Test B preemergence, Surinam grass; settings: Preemergence, scale 0 to 100
Outline: as §3

[6] = test system: cocklebur (Xanthium strumarium); assay: Test B preemergence, cocklebur; settings: scale 0 to 100
Source text: as §2

[7] = test system: umbrella sedge (Cyperus difformis); assay: Test B flooded paddy test, umbrella sedge; settings: Flood, scale 0 to 100
Outline: (§4)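 Rice, umbrella sedge, ducksalad and barnyardgrass at 2-leaf stage; pots flooded to 3 cm, compounds applied into paddy water, depth held throughout. Greenhouse 13 to 15 days, then visual rating vs untreated controls on 0–100 scale (0 no effect, 100 complete control); dash means no test result.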

[8] = test system: large crabgrass (Digitaria sanguinalis); assay: Test B preemergence, large crabgrass; settings: scale 0 to 100
Source text: as §2

[9] = test system: pigweed (Amaranthus retroflexus); assay: Test B preemergence, pigweed; settings: scale 0 to 100
Source text: as §2

soybean (Glycine max) = assay: Test B preemergence, soybean; settings: Preemergence, scale 0 to 100
Outline: as §3

[10] = test system: woolly cupgrass (Eriochloa villosa); assay: Test B preemergence, woolly cupgrass; settings: scale 0 to 100
Source text: as §2

[11] = test system: barnyardgrass (Echinochloa crus-galli); assay: Test A postemergence, barnyardgrass; settings: 0 to 100 scale (0 no effect, 100 complete control)
Outline: as §1

[12] = test system: barnyardgrass (Echinochloa crus-galli); assay: Test B flooded paddy test, barnyardgrass; settings: Flood
Outline: as §4

[13] = test system: goosegrass (Eleusine indica); assay: Test B preemergence, goosegrass; settings: scale 0 to 100
Source text: as §2

[14] = test system: Italian ryegrass (Lolium multiflorum); assay: Test B preemergence, Italian ryegrass; settings: Preemergence, scale 0 to 100
Outline: as §3

[15] = test system: ragweed (common ragweed, Ambrosia elatior); assay: Test B preemergence, ragweed; settings: scale 0 to 100
Source text: as §2

[16] = test system: barnyardgrass (Echinochloa crus-galli); assay: Test A preemergence, barnyardgrass; settings: 0 to 100 scale (0 no effect, 100 complete control)
Outline: as §1

[17] = 250 g ai/ha, scale 0 to 100 (0 no effect, 100 complete control)

CC1(C)CC(S(=O)(=O)Cc2c(C(F)(F)F)nc3ccsn3c2=O)=NO1 [Compound 16]
40: Plant response rating, Sedge, Umbrella ([7]; 250 g ai/ha)
0: Plant response rating, Corn (corn (Zea mays); 125 g ai/ha) | Plant response rating, Corn (corn (Zea mays); 500 g ai/ha) | Plant response rating, Lambsquarters ([1]; 16 g ai/ha) | Plant response rating, Lambsquarters ([1]; 31 g ai/ha) | Plant response rating, Lambsquarters ([1]; 62 g ai/ha) | Plant response rating, Sunflower ([2]; 16 g ai/ha) | Plant response rating, Sunflower ([2]; 31 g ai/ha) | Plant response rating, Sunflower ([2]; 62 g ai/ha) | Plant response rating, Sunflower ([2]; 125 g ai/ha) | Plant response rating, Morningglory ([3]; 125 g ai/ha) | Plant response rating, Bromegrass, Downy ([4]; 16 g ai/ha) | Plant response rating, Bromegrass, Downy ([4]; 31 g ai/ha) | Plant response rating, Bromegrass, Downy ([4]; 62 g ai/ha) | Plant response rating, Surinam Grass ([5]; 16 g ai/ha) | Plant response rating, Cocklebur ([6]; 16 g ai/ha) | Plant response rating, Cocklebur ([6]; 31 g ai/ha) | Plant response rating, Cocklebur ([6]; 62 g ai/ha) | Plant response rating, Cocklebur ([6]; 125 g ai/ha) | Plant response rating, Sedge, Umbrella ([7]; 62 g ai/ha) | Plant response rating, Pigweed ([9]; 31 g ai/ha) | Plant response rating, Pigweed ([9]; 62 g ai/ha) | Plant response rating, Soybean (soybean (Glycine max); 16 g ai/ha) | Plant response rating, Soybean (soybean (Glycine max); 31 g ai/ha) | Plant response rating, Soybean (soybean (Glycine max); 62 g ai/ha) | Plant response rating, Soybean (soybean (Glycine max); 125 g ai/ha) | Plant response rating, Cupgrass, Woolly ([10]; 16 g ai/ha) | Plant response rating, Barnyardgrass ([12]; 62 g ai/ha, scale 0 to 100) | Plant response rating, Barnyardgrass [12, 17] | Plant response rating, Ryegrass, Italian ([14]; 16 g ai/ha) | Plant response rating, Ryegrass, Italian ([14]; 31 g ai/ha) | Plant response rating, Ragweed ([15]; 16 g ai/ha) | Plant response rating, Ragweed ([15]; 31 g ai/ha) | Plant response rating, Ragweed ([15]; 62 g ai/ha) | Plant response rating, Ragweed ([15]; 125 g ai/ha)
98: Plant response rating, Lambsquarters ([1]; 125 g ai/ha) | Plant response rating, Surinam Grass ([5]; 125 g ai/ha) | Plant response rating, Cupgrass, Woolly ([10]; 125 g ai/ha)
100: Plant response rating, Crabgrass, Large ([8]; 62 g ai/ha) | Plant response rating, Crabgrass, Large ([8]; 125 g ai/ha) | Plant response rating, Pigweed ([9]; 125 g ai/ha) | Plant response rating, Goosegrass ([13]; 62 g ai/ha) | Plant response rating, Goosegrass ([13]; 125 g ai/ha)
25: Plant response rating, Cupgrass, Woolly ([10]; 31 g ai/ha)
30: Plant response rating, Bromegrass, Downy ([4]; 125 g ai/ha) | Plant response rating, Ryegrass, Italian ([14]; 62 g ai/ha)
55: Plant response rating, Surinam Grass ([5]; 31 g ai/ha)
95: Plant response rating, Surinam Grass ([5]; 62 g ai/ha) | Plant response rating, Crabgrass, Large ([8]; 31 g ai/ha) | Plant response rating, Cupgrass, Woolly ([10]; 62 g ai/ha) | Plant response rating, Goosegrass ([13]; 31 g ai/ha)
70: Plant response rating, Crabgrass, Large ([8]; 16 g ai/ha)
50: Plant response rating, Morningglory ([3]; 500 g ai/ha) | Plant response rating, Barnyardgrass ([16]; 125 g ai/ha)
90: Plant response rating, Barnyardgrass ([11]; 500 g ai/ha)
60: Plant response rating, Ryegrass, Italian ([14]; 125 g ai/ha)
85: Plant response rating, Goosegrass ([13]; 16 g ai/ha)
80: Plant response rating, Barnyardgrass ([11]; 125 g ai/ha) | Plant response rating, Barnyardgrass ([16]; 500 g ai/ha)

CC1(C)CC(S(=O)(=O)Cc2c(C(F)(F)C(F)(F)F)nc3n(c2=O)CCCC3)=NO1 [Compound 21]
20: Plant response rating, Crabgrass, Large ([8]; 16 g ai/ha)
60: Plant response rating, Bromegrass, Downy ([4]; 125 g ai/ha)
98: Plant response rating, Lambsquarters ([1]; 125 g ai/ha) | Plant response rating, Crabgrass, Large ([8]; 62 g ai/ha) | Plant response rating, Pigweed ([9]; 125 g ai/ha) | Plant response rating, Goosegrass ([13]; 31 g ai/ha)
100: Plant response rating, Surinam Grass ([5]; 125 g ai/ha) | Plant response rating, Crabgrass, Large ([8]; 125 g ai/ha) | Plant response rating, Cupgrass, Woolly ([10]; 16 g ai/ha) | Plant response rating, Cupgrass, Woolly ([10]; 31 g ai/ha) | Plant response rating, Cupgrass, Woolly ([10]; 62 g ai/ha) | Plant response rating, Cupgrass, Woolly ([10]; 125 g ai/ha) | Plant response rating, Goosegrass ([13]; 62 g ai/ha) | Plant response rating, Goosegrass ([13]; 125 g ai/ha) | Plant response rating, Barnyardgrass ([16]; 500 g ai/ha)
10: Plant response rating, Sunflower ([2]; 125 g ai/ha) | Plant response rating, Ragweed ([15]; 125 g ai/ha)
90: Plant response rating, Barnyardgrass ([11]; 500 g ai/ha) | Plant response rating, Barnyardgrass ([16]; 125 g ai/ha)
70: Plant response rating, Barnyardgrass ([11]; 125 g ai/ha)
50: Plant response rating, Surinam Grass ([5]; 16 g ai/ha) | Plant response rating, Surinam Grass ([5]; 31 g ai/ha) | Plant response rating, Surinam Grass ([5]; 62 g ai/ha) | Plant response rating, Goosegrass ([13]; 16 g ai/ha)
40: Plant response rating, Morningglory ([3]; 500 g ai/ha) | Plant response rating, Ryegrass, Italian ([14]; 125 g ai/ha)
0: Plant response rating, Corn (corn (Zea mays); 125 g ai/ha) | Plant response rating, Corn (corn (Zea mays); 500 g ai/ha) | Plant response rating, Lambsquarters ([1]; 16 g ai/ha) | Plant response rating, Lambsquarters ([1]; 31 g ai/ha) | Plant response rating, Lambsquarters ([1]; 62 g ai/ha) | Plant response rating, Sunflower ([2]; 16 g ai/ha) | Plant response rating, Sunflower ([2]; 31 g ai/ha) | Plant response rating, Sunflower ([2]; 62 g ai/ha) | Plant response rating, Morningglory ([3]; 125 g ai/ha) | Plant response rating, Bromegrass, Downy ([4]; 16 g ai/ha) | Plant response rating, Bromegrass, Downy ([4]; 31 g ai/ha) | Plant response rating, Bromegrass, Downy ([4]; 62 g ai/ha) | Plant response rating, Cocklebur ([6]; 16 g ai/ha) | Plant response rating, Cocklebur ([6]; 31 g ai/ha) | Plant response rating, Cocklebur ([6]; 62 g ai/ha) | Plant response rating, Cocklebur ([6]; 125 g ai/ha) | Plant response rating, Sedge, Umbrella ([7]; 62 g ai/ha) | Plant response rating, Sedge, Umbrella ([7]; 250 g ai/ha) | Plant response rating, Pigweed ([9]; 16 g ai/ha) | Plant response rating, Pigweed ([9]; 31 g ai/ha) | Plant response rating, Pigweed ([9]; 62 g ai/ha) | Plant response rating, Soybean (soybean (Glycine max); 16 g ai/ha) | Plant response rating, Soybean (soybean (Glycine max); 31 g ai/ha) | Plant response rating, Soybean (soybean (Glycine max); 62 g ai/ha) | Plant response rating, Soybean (soybean (Glycine max); 125 g ai/ha) | Plant response rating, Barnyardgrass ([12]; 62 g ai/ha, scale 0 to 100) | Plant response rating, Barnyardgrass [12, 17] | Plant response rating, Ryegrass, Italian ([14]; 16 g ai/ha) | Plant response rating, Ryegrass, Italian ([14]; 31 g ai/ha) | Plant response rating, Ryegrass, Italian ([14]; 62 g ai/ha) | Plant response rating, Ragweed ([15]; 16 g ai/ha) | Plant response rating, Ragweed ([15]; 31 g ai/ha) | Plant response rating, Ragweed ([15]; 62 g ai/ha)
95: Plant response rating, Crabgrass, Large ([8]; 31 g ai/ha)
